Test results as given in BindingDB's records for doi:10.1021/jm5001979 (Amgen, 2014).
pEC50: −log10 of the molar value.

Assay: Induction of GK translocation from nucleus to cytoplasm of mouse hepatocytes preincubated for 20 mins followed by glucose challenge measured after 40 mins by Hoechst 33342 staining-based assay

First: Nc1ccc(S(=O)(=O)N2CCN(c3ncc(C(O)(C(F)(F)F)C(F)(F)F)cc3-c3cc4ccccc4[nH]3)CC2)cn1
Second: Nc1ccc(S(=O)(=O)N2CCN(c3ncc(C(O)(C(F)(F)F)C(F)(F)F)cc3-c3cc4ccccc4s3)CC2)cn1
The pEC50 of the first is 0.39 log units higher: 5.95 for the first, 5.56 for the second. The first is the more potent here.

Nc1ccc(S(=O)(=O)N2CCN(c3ncc(C(O)(C(F)(F)F)C(F)(F)F)cc3-c3ccc4ocnc4c3)CC2)cn1 and Cc1nc2cc(-c3cc(C(O)(C(F)(F)F)C(F)(F)F)cnc3N3CCN(S(=O)(=O)c4ccc(N)nc4)CC3)ccc2o1 are within 0.2 log units of each other in pEC50: 6.38 for the first, 6.45 for the second.

Compared with Nc1ccc(S(=O)(=O)N2CCN(c3ncc(C(O)(C(F)(F)F)C(F)(F)F)cc3-c3ccc(F)cc3)CC2)cn1, Nc1ccc(S(=O)(=O)N2CCN(c3ncc(C(O)(C(F)(F)F)C(F)(F)F)cc3-c3cccc(F)c3)CC2)cn1 is 0.31 log units lower in pEC50: 5.86 for the first, 5.55 for the second. The first is the more potent here.

CCn1cc(-c2cc(C(O)(C(F)(F)F)C(F)(F)F)cnc2N2CCN(S(=O)(=O)c3ccc(N)nc3)CC2)cn1 and Cn1cc(-c2cc(C(O)(C(F)(F)F)C(F)(F)F)cnc2N2CCN(S(=O)(=O)c3ccc(N)nc3)CC2)cn1 are within 0.2 log units of each other in pEC50: 7.09 for the first, 7.28 for the second.

Going from Nc1ccc(S(=O)(=O)N2CCN(c3ncc(C(O)(C(F)(F)F)C(F)(F)F)cc3-c3ccoc3)CC2)cn1 to Nc1ccc(S(=O)(=O)N2CCN(c3ncc(C(O)(C(F)(F)F)C(F)(F)F)cc3-c3ccncc3)CC2)cn1, the pEC50 rises from 5.76 to 6.03 (0.27 log units). The second is the more potent here.

Nc1ccc(S(=O)(=O)N2CCN(c3ncc(C(O)(C(F)(F)F)C(F)(F)F)cc3-c3ccccc3F)CC2)cn1 and Nc1ccc(S(=O)(=O)N2CCN(c3ncc(C(O)(C(F)(F)F)C(F)(F)F)cc3-c3ccccc3O)CC2)cn1 are within 0.2 log units of each other in pEC50: 6.10 for the first, 6.25 for the second.

Going from Nc1ccc(S(=O)(=O)N2CCN(c3ccc(C(O)(C(F)(F)F)C(F)(F)F)cn3)CC2)cn1 to Nc1ccc(S(=O)(=O)N2CCN(c3ncc(C(O)(C(F)(F)F)C(F)(F)F)cc3Cl)CC2)cn1, the pEC50 rises from < 4.90 to 5.20. The second is the more potent here.

Going from Nc1ccc(S(=O)(=O)N2CCN(c3ncc(C(O)(C(F)(F)F)C(F)(F)F)cc3-c3cnccc3F)CC2)cn1 to Nc1ccc(S(=O)(=O)N2CCN(c3ncc(C(O)(C(F)(F)F)C(F)(F)F)cc3-c3cncc(F)c3)CC2)cn1, the pEC50 falls from 5.89 to < 4.90. The first is the more potent here.

Nc1ccc(S(=O)(=O)N2CCN(c3ncc(C(O)(C(F)(F)F)C(F)(F)F)cc3-c3ccc4c(c3)CC(=O)N4)CC2)cn1 and CN1C(=O)Cc2cc(-c3cc(C(O)(C(F)(F)F)C(F)(F)F)cnc3N3CCN(S(=O)(=O)c4ccc(N)nc4)CC3)ccc21 are within 0.2 log units of each other in pEC50: 6.51 for the first, 6.63 for the second.

First: Nc1ccc(S(=O)(=O)N2CCN(c3ncc(C(O)(C(F)(F)F)C(F)(F)F)cc3-c3cc[nH]n3)CC2)cn1
Second: Cc1ccc(-c2cc(C(O)(C(F)(F)F)C(F)(F)F)cnc2N2CCN(S(=O)(=O)c3ccc(N)nc3)CC2)cn1
The pEC50 of the first is 0.38 log units lower: 4.95 for the first, 5.33 for the second. The second is the more potent here.

First: CC(C)(C)n1cc(-c2cc(C(O)(C(F)(F)F)C(F)(F)F)cnc2N2CCN(S(=O)(=O)c3ccc(N)nc3)CC2)cn1
Second: CC(C)n1cc(-c2cc(C(O)(C(F)(F)F)C(F)(F)F)cnc2N2CCN(S(=O)(=O)c3ccc(N)nc3)CC2)cn1
The pEC50 of the first is 0.36 log units lower: 5.61 for the first, 5.97 for the second. The second is the more potent here.

Going from Nc1ccc(S(=O)(=O)N2CCN(c3ncc(C(O)(C(F)(F)F)C(F)(F)F)cc3C#CCCO)CC2)cn1 to Nc1ccc(S(=O)(=O)N2CCN(c3ncc(C(O)(C(F)(F)F)C(F)(F)F)cc3C#CCO)CC2)cn1, the pEC50 rises from 5.70 to 6.29 (0.59 log units). The second is the more potent here.

Cc1csc(-c2cc(C(O)(C(F)(F)F)C(F)(F)F)cnc2N2CCN(S(=O)(=O)c3ccc(N)nc3)CC2)c1 and Cc1cncc(-c2cc(C(O)(C(F)(F)F)C(F)(F)F)cnc2N2CCN(S(=O)(=O)c3ccc(N)nc3)CC2)c1 are within 0.2 log units of each other in pEC50: 5.92 for the first, 6.10 for the second.

First: Nc1ccc(S(=O)(=O)N2CCN(c3ncc(C(O)(C(F)(F)F)C(F)(F)F)cc3C#CC3CC3)CC2)cn1
Second: COCC#Cc1cc(C(O)(C(F)(F)F)C(F)(F)F)cnc1N1CCN(S(=O)(=O)c2ccc(N)nc2)CC1
The pEC50 of the first is 1.13 log units lower: 5.47 for the first, 6.60 for the second.

Compared with Nc1ccc(S(=O)(=O)N2CCN(c3ncc(C(O)(C(F)(F)F)C(F)(F)F)cc3Br)CC2)cn1, CC(C)(O)C#Cc1cc(C(O)(C(F)(F)F)C(F)(F)F)cnc1N1CCN(S(=O)(=O)c2ccc(N)nc2)CC1 is 0.40 log units higher in pEC50: 5.27 for the first, 5.67 for the second. The second is the more potent here.

First: Nc1ccc(S(=O)(=O)N2CCN(c3ncc(C(O)(C(F)(F)F)C(F)(F)F)cc3-c3ccc4sccc4c3)CC2)cn1
Second: Nc1ccc(S(=O)(=O)N2CCN(c3ncc(C(O)(C(F)(F)F)C(F)(F)F)cc3-c3ccc4scnc4c3)CC2)cn1
The pEC50 of the first is lower: < 4.90 for the first, 5.94 for the second.

Compared with Nc1ccc(S(=O)(=O)N2CCN(c3ncc(C(O)(C(F)(F)F)C(F)(F)F)cc3-c3ccc4[nH]ncc4c3)CC2)cn1, COc1ccc(-c2cc(C(O)(C(F)(F)F)C(F)(F)F)cnc2N2CCN(S(=O)(=O)c3ccc(N)nc3)CC2)cn1 is 0.27 log units higher in pEC50: 5.58 for the first, 5.85 for the second.

Cc1c(-c2cc(C(O)(C(F)(F)F)C(F)(F)F)cnc2N2CCN(S(=O)(=O)c3ccc(N)nc3)CC2)cnn1C and COc1cncc(-c2cc(C(O)(C(F)(F)F)C(F)(F)F)cnc2N2CCN(S(=O)(=O)c3ccc(N)nc3)CC2)c1 are within 0.2 log units of each other in pEC50: 5.90 for the first, 5.85 for the second.

Nc1ccc(S(=O)(=O)N2CCN(c3ncc(C(O)(C(F)(F)F)C(F)(F)F)cc3-c3ccccc3)CC2)cn1 and NC(=O)c1cccc(-c2cc(C(O)(C(F)(F)F)C(F)(F)F)cnc2N2CCN(S(=O)(=O)c3ccc(N)nc3)CC2)c1 are within 0.2 log units of each other in pEC50: 6.11 for the first, 6.12 for the second.

CS(=O)(=O)c1ccc(-c2cc(C(O)(C(F)(F)F)C(F)(F)F)cnc2N2CCN(S(=O)(=O)c3ccc(N)nc3)CC2)cc1 gave a pEC50 of 5.53.
